Experimental data reported in article PMC3253915 (Molecular Genetics and Metabolism, 2011).

Target: human GALK (Homo sapiens, UniProt P51570)
Experiment: GALK inhibition in vitro
Format: biochemical
Settings: unpublished data

Chain of human GALK (P51570 whole entry): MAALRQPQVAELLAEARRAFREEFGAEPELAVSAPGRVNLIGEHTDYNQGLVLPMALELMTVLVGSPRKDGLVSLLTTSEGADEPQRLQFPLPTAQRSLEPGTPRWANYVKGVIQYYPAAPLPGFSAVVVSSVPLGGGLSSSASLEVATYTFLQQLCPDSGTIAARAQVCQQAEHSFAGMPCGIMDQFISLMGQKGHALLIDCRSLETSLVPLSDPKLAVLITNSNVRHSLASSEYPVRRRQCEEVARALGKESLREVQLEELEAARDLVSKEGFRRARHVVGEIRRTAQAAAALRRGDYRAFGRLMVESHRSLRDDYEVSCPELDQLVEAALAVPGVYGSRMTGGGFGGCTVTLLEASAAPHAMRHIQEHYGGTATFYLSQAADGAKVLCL

Compound | GALK inhibition (galactose derivative) | GALK inhibition (at low millimolar (mM) range)
O=CC[C@@H](O)[C@@H](O)[C@H](O)CO [2-deoxygalactose] | did not result in GALK inhibition | –
O=C(CO)[C@@H](O)[C@H](O)[C@H](O)CO [fructose] | – | no inhibition
OC[C@H]1OC(O)[C@H](O)[C@@H](O)[C@@H]1O (stereo partly drawn) [glucose] | – | no inhibition
